According to the supplement of paper PMC10307832:

Assays:
Assay in all cases: relative viability (nuclei count vs DMSO), 5 days (fraction); higher = more cells survive
[1] = test system: NCI-H2170
Summary of the method: (§1)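 Relative viability is defined as nuclei in treated wells over nuclei in vehicle wells. Duplicate plates were run and medians reported. Lung cancer cell lines in 1536-well plates were dosed by pin tool one day after seeding, with one drug or with a fixed anchor-drug dose plus five library-drug doses (not always all listed) in √10 steps, and nuclei were counted after 5 days.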

[2] = test system: NCI-H2228
Summary of the method: as §1

[3] = test system: LOU-NH91
Summary of the method: as §1

[4] = test system: NCI-H520
Summary of the method: as §1

[5] = test system: HCC-366
Summary of the method: as §1

[6] = test system: RERF-LC-KJ
Summary of the method: as §1

[7] = test system: NCI-H596
Summary of the method: as §1

[8] = test system: NCI-H1755
Summary of the method: as §1

[9] = test system: SW 1573
Summary of the method: as §1

[10] = test system: NCI-H838
Summary of the method: as §1

[11] = test system: NCI-H1651
Summary of the method: as §1

[12] = test system: HCC-78
Summary of the method: as §1

[13] = test system: NCI-H1975
Summary of the method: as §1

[14] = test system: HCC-827
Summary of the method: as §1

[15] = test system: UMC-11
Summary of the method: as §1

[16] = test system: NCI-H1993
Summary of the method: as §1

[17] = test system: SK-MES-1
Summary of the method: as §1

[18] = test system: PC-3 [JPC-3]
Summary of the method: as §1

[19] = test system: HARA
Summary of the method: as §1

[20] = test system: NCI-H1793
Summary of the method: as §1

[21] = test system: HCC-44
Summary of the method: as §1

[22] = test system: COR-L 105
Summary of the method: as §1

[23] = test system: EPLC-272H
Summary of the method: as §1

[24] = test system: NCI-H1355
Summary of the method: as §1

Cc1cn(-c2cc(NC(=O)c3ccc(C)c(Nc4nccc(-c5cccnc5)n4)c3)cc(C(F)(F)F)c2)cn1 [Nilotinib] + CS(=O)(=O)CCNCc1ccc(-c2ccc3ncnc(Nc4ccc(OCc5cccc(F)c5)c(Cl)c4)c3c2)o1 [Lapatinib] (partner 2 µM)
relative viability ([1]; first compound 0.001 µM): 0.26 | relative viability ([1]; first compound 0.003162 µM): 0.285 | relative viability ([1]; first compound 0.01 µM): 0.272 | relative viability ([1]; first compound 0.03162 µM): 0.28 | relative viability ([1]; first compound 0.1 µM): 0.268 | relative viability ([2]; first compound 0.001 µM): 1.03 | relative viability ([2]; first compound 0.003162 µM): 1.25 | relative viability ([2]; first compound 0.01 µM): 1.13 | relative viability ([2]; first compound 0.03162 µM): 1.01 | relative viability ([2]; first compound 0.1 µM): 0.285 | relative viability ([3]; first compound 0.001 µM): 0.76 | relative viability ([3]; first compound 0.003162 µM): 0.679 | relative viability ([3]; first compound 0.01 µM): 0.649 | relative viability ([3]; first compound 0.03162 µM): 0.761 | relative viability ([3]; first compound 0.1 µM): 0.747 | relative viability ([4]; first compound 0.001 µM): 0.678 | relative viability ([4]; first compound 0.01 µM): 0.927 | relative viability ([4]; first compound 0.03162 µM): 0.707 | relative viability ([4]; first compound 0.1 µM): 0.383 | relative viability ([5]; first compound 0.001 µM): 0.907 | relative viability ([5]; first compound 0.003162 µM): 1.38 | relative viability ([5]; first compound 0.01 µM): 1.29 | relative viability ([5]; first compound 0.03162 µM): 0.984 | relative viability ([5]; first compound 0.1 µM): 0.191 | relative viability ([6]; first compound 0.001 µM): 0.874 | relative viability ([6]; first compound 0.003162 µM): 0.986 | relative viability ([6]; first compound 0.01 µM): 0.977 | relative viability ([6]; first compound 0.03162 µM): 0.882 | relative viability ([6]; first compound 0.1 µM): 0.888 | relative viability ([7]; first compound 0.001 µM): 1.01 | relative viability ([7]; first compound 0.003162 µM): 1.15 | relative viability ([7]; first compound 0.01 µM): 1.09 | relative viability ([7]; first compound 0.03162 µM): 0.984 | relative viability ([7]; first compound 0.1 µM): 0.88 | relative viability ([8]; first compound 0.001 µM): 1.02 | relative viability ([8]; first compound 0.003162 µM): 1.35 | relative viability ([8]; first compound 0.01 µM): 1.43 | relative viability ([8]; first compound 0.03162 µM): 0.986 | relative viability ([8]; first compound 0.1 µM): 0.551 | relative viability ([9]; first compound 0.003162 µM): 1.26 | relative viability ([9]; first compound 0.01 µM): 1.17 | relative viability ([9]; first compound 0.03162 µM): 1.1 | relative viability ([9]; first compound 0.1 µM): 1.27 | relative viability ([10]; first compound 0.001 µM): 0.927 | relative viability ([10]; first compound 0.003162 µM): 1.02 | relative viability ([10]; first compound 0.01 µM): 0.925 | relative viability ([10]; first compound 0.03162 µM): 0.817 | relative viability ([10]; first compound 0.1 µM): 0.609 | relative viability ([11]; first compound 0.001 µM): 0.815 | relative viability ([11]; first compound 0.003162 µM): 0.803 | relative viability ([11]; first compound 0.01 µM): 1.06 | relative viability ([11]; first compound 0.03162 µM): 0.737 | relative viability ([11]; first compound 0.1 µM): 0.359 | relative viability ([12]; first compound 0.001 µM): 0.889 | relative viability ([12]; first compound 0.003162 µM): 0.718 | relative viability ([12]; first compound 0.01 µM): 0.779 | relative viability ([12]; first compound 0.03162 µM): 0.491 | relative viability ([12]; first compound 0.1 µM): 0.571 | relative viability ([13]; first compound 0.001 µM): 0.859 | relative viability ([13]; first compound 0.003162 µM): 1.18 | relative viability ([13]; first compound 0.01 µM): 0.894 | relative viability ([13]; first compound 0.03162 µM): 0.658 | relative viability ([13]; first compound 0.1 µM): 0.433 | relative viability ([14]; first compound 0.001 µM): 0.233 | relative viability ([14]; first compound 0.003162 µM): 0.184 | relative viability ([14]; first compound 0.01 µM): 0.154 | relative viability ([14]; first compound 0.1 µM): 0.184 | relative viability ([15]; first compound 0.001 µM): 0.995 | relative viability ([15]; first compound 0.003162 µM): 1.2 | relative viability ([15]; first compound 0.01 µM): 1.27 | relative viability ([15]; first compound 0.03162 µM): 0.851 | relative viability ([15]; first compound 0.1 µM): 0.255 | relative viability ([16]; first compound 0.001 µM): 0.797 | relative viability ([16]; first compound 0.003162 µM): 0.863 | relative viability ([16]; first compound 0.01 µM): 0.77 | relative viability ([16]; first compound 0.03162 µM): 0.874 | relative viability ([16]; first compound 0.1 µM): 0.651 | relative viability ([17]; first compound 0.003162 µM): 0.663 | relative viability ([17]; first compound 0.01 µM): 0.665 | relative viability ([17]; first compound 0.03162 µM): 0.541 | relative viability ([17]; first compound 0.1 µM): 0.557 | relative viability ([18]; first compound 0.001 µM): 0.44 | relative viability ([18]; first compound 0.003162 µM): 0.537 | relative viability ([18]; first compound 0.01 µM): 0.467 | relative viability ([18]; first compound 0.03162 µM): 0.542 | relative viability ([18]; first compound 0.1 µM): 0.282 | relative viability ([19]; first compound 0.001 µM): 0.685 | relative viability ([19]; first compound 0.003162 µM): 0.777 | relative viability ([19]; first compound 0.01 µM): 0.686 | relative viability ([19]; first compound 0.03162 µM): 0.8 | relative viability ([19]; first compound 0.1 µM): 0.454 | relative viability ([20]; first compound 0.003162 µM): 0.842 | relative viability ([20]; first compound 0.01 µM): 1.02 | relative viability ([20]; first compound 0.03162 µM): 0.859 | relative viability ([20]; first compound 0.1 µM): 0.21 | relative viability ([21]; first compound 0.001 µM): 0.994 | relative viability ([21]; first compound 0.003162 µM): 1.09 | relative viability ([21]; first compound 0.01 µM): 0.822 | relative viability ([21]; first compound 0.03162 µM): 0.966 | relative viability ([21]; first compound 0.1 µM): 0.869 | relative viability ([22]; first compound 0.001 µM): 0.418 | relative viability ([22]; first compound 0.01 µM): 0.375 | relative viability ([22]; first compound 0.03162 µM): 0.352 | relative viability ([22]; first compound 0.1 µM): 0.286 | relative viability ([23]; first compound 0.001 µM): 0.877 | relative viability ([23]; first compound 0.003162 µM): 1.23 | relative viability ([23]; first compound 0.01 µM): 0.775 | relative viability ([23]; first compound 0.03162 µM): 0.976 | relative viability ([23]; first compound 0.1 µM): 0.402 | relative viability ([24]; first compound 0.001 µM): 1.07 | relative viability ([24]; first compound 0.003162 µM): 1.32 | relative viability ([24]; first compound 0.01 µM): 1.2 | relative viability ([24]; first compound 0.03162 µM): 1.12 | relative viability ([24]; first compound 0.1 µM): 0.401
